Target: T1, glucocorticoid receptor (GR) (Homo sapiens, UniProt P04150)
T1 construct: expression plasmids for full-length human GR; expressed in transfected cells; host or cells: LNCaP
T1 sequence (P04150 1-777): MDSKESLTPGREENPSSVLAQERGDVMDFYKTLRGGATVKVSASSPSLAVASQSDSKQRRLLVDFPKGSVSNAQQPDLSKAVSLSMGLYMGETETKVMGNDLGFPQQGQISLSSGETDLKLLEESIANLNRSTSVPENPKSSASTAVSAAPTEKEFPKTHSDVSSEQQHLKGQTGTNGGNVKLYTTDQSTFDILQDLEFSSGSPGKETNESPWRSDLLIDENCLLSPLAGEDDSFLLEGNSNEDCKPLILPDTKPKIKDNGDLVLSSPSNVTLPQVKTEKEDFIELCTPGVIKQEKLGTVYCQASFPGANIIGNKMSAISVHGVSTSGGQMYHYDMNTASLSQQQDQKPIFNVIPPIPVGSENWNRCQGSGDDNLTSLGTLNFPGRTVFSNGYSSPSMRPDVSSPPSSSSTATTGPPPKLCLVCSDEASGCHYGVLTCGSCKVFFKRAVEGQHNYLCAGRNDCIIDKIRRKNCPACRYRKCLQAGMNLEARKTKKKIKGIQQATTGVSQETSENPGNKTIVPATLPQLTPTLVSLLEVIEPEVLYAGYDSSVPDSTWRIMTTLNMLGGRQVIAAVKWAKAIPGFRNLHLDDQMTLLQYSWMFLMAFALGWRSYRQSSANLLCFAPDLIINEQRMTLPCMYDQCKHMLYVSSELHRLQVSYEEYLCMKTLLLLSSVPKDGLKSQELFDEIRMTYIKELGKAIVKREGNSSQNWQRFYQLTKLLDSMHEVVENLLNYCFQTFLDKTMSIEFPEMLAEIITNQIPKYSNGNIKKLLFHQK
Assay: GRE-luciferase reporter assay in LNCaP cells cotransfected with full-length human GR
Format: cell-based
Conditions: 1.9 μM 8d, 10 nM dexamethasone, 48 h, LNCaP cells (FIG. 2C)
Procedure: To assess specificity for the AR, parallel experiments were performed in LNCaP cells with endogenous AR and ectopic expression of other closely related human hormone receptors such as the progesterone receptor-beta (PRβ), glucocorticoid receptor (GR) and estrogen receptor-α (ER).

## CC(C)(c1ccc(OC[C@H](O)CO)cc1)c1ccc(OC[C@H](O)CCl)c(I)c1 [Compound 8d, (R)-3-(4-(2-(4-((S)-3-chloro-2-hydroxypropoxy)-3-iodophenyl)propan-2-yl)phenoxy)propane-1,2-diol]
  GR activity (GRE-luciferase): not inhibited
